# Like-named read-outs stand apart in the source and are kept apart here.
# Legend:
# PRMT5/MEP50 = PRMT5/MEP50 (Homo sapiens (Human), UniProt O14744); assay: PRMT5 Biochemical Assay (PRMT5/MEP50 enzyme assay on peptide substrate, 3H-SAM Flashplate)
# How it was run: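 Radiometric methylation of a biotin-tagged H4(1-15) peptide by human PRMT5/MEP50 from baculovirus/Sf9, with ³H-SAM incorporation read on streptavidin Flashplates. Buffer: Bicine pH 7.6, TCEP, BSG, Tween20; compound preincubated 30 min at 25 °C; stopped with 600 µM final unlabeled SAM. DMSO and SAH controls; IC50 from fitted % inhibition.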
# [1] = tested on: symmetric di-methyl arginine in Z-138 cells; assay: Z-138 Methylation Assay (In Cell Western for symmetric di-methyl arginine and DNA content); type: cell-based; conditions: Homo sapiens, read-out: ICW EC50
# How it was run: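 Z-138 cells (50,000 cells/mL) treated with compound 96 h at 37 °C, then fixed and stained for symmetric di-methyl arginine (800 nm) with DRAQ5 DNA counterstain (700 nm) on Licor Odyssey.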
# Z-138 cell line = assay: Z-138 Proliferation Assay (Cell Titer Glo, 5 days); type: cell-based; conditions: Homo sapiens, 120 h, Z-138 cells, 5 days, read-out: Proliferation EC50
# How it was run: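 Z-138 cells exposed 5 days at 37 °C, 5% CO2 to nine-point 3-fold dilutions (final top 20 μM, 0.2% DMSO), in triplicate. Viability read as ATP by CellTiter-Glo luminescence; IC50 from 4-parameter fit of normalized dose-response curves.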
# PRMT5/MEP50, sequence (O14744 other isoform, or with tags, fused parts or gaps): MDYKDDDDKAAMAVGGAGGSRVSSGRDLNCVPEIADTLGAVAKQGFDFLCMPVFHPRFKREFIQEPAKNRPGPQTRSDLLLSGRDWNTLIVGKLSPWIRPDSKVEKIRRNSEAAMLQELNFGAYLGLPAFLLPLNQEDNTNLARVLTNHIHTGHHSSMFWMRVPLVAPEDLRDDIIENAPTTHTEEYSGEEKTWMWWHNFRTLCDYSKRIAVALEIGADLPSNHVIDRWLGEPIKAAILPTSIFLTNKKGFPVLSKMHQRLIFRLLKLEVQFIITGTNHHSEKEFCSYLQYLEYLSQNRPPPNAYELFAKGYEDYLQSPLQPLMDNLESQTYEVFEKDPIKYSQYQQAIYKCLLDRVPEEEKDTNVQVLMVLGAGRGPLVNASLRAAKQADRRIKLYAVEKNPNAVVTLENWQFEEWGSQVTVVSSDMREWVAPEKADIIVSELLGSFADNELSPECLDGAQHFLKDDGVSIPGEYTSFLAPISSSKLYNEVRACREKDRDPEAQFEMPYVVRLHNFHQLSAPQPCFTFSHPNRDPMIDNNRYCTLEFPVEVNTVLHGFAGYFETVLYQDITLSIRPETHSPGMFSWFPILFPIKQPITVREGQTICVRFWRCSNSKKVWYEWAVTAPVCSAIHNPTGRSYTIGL
# PRMT5/MEP50, sequence (Q9BQA1 other isoform, or with tags, fused parts or gaps partner): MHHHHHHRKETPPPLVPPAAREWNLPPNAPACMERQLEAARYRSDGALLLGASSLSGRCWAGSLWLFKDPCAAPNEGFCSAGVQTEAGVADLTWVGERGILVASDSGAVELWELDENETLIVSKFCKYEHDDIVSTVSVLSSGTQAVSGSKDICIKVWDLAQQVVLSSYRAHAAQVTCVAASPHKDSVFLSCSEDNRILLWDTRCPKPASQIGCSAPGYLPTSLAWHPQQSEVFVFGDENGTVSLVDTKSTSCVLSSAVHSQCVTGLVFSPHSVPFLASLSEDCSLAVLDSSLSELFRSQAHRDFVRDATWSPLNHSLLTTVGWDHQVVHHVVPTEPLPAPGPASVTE
Structure (SMILES),IC50 (PRMT5/MEP50; PRMT5 biochemical assay),EC50 ([1]; In Cell Western methylation),EC50 (Z-138 cell line; Cell Titer Glo),IC50 (PRMT5/MEP50),EC50 [1],EC50 (Z-138 cell line)
Cc1cccc2c1CCN(C[C@@H](O)CNC(=O)c1cc(NC3COC3)ncn1)C2 [Compound 683],0.101 to 1 µM,0.101 to 1 µM,> 5 µM,–,–,–
CC(C)(C)C(=O)N1CC(Nc2cc(C(=O)NC[C@H](O)CN3CCc4ccccc4C3)ncn2)C1 [Compound 424],< 0.1 µM,< 0.1 µM,0.101 to 1 µM,–,–,–
CN(C)CCN(C)c1nc(NC2CNC2)cc(C(=O)NC[C@H](O)CN2CCc3ccccc3C2)n1 [Compound 528],< 0.1 µM,0.101 to 1 µM,0.101 to 1 µM,–,–,–
COC(CNC(=O)c1cc(NC2COC2)ncn1)CN1CCc2ccccc2C1 (stereo not drawn) [Compound 523],1 to 10 µM,> 1 µM,> 5 µM,–,–,–
CC(C)(C)c1nc(NC2COC2)cc(C(=O)NC[C@H](O)CN2CCc3ccccc3C2)n1 [Compound 527],< 0.1 µM,< 0.1 µM,0.101 to 1 µM,–,–,–
CCC(=O)N1CC(Nc2cc(C(=O)NC[C@H](O)CN3CCc4ccccc4C3)ccn2)C1 [Compound 488],< 0.1 µM,< 0.1 µM,< 0.1 µM,–,–,–
CC(C)C(=O)N1CC(Nc2cc(C(=O)NC[C@H](O)CN3CCc4ccccc4C3)ccn2)C1 [Compound 489],< 0.1 µM,< 0.1 µM,< 0.1 µM,–,–,–
CC(=O)N1CC(Nc2cc(C(=O)NCC(C)CN3CCc4ccccc4C3)ncn2)C1 (stereo not drawn) [Compound 659],< 0.1 µM,< 0.1 µM,0.101 to 1 µM,–,–,–
CN(C)[C@H]1CC[C@@H](Nc2cc(C(=O)NC[C@H](O)CN3CCc4ccccc4C3)ncn2)CC1 [Compound 589],< 0.1 µM,0.101 to 1 µM,1 to 10 µM,–,–,–
CC(C)NCCCOc1ccc(C(=O)NC[C@H](O)CN2CCc3ccccc3C2)cc1 [Compound 374],–,–,–,< 0.1 µM,< 0.1 µM,1 to 10 µM
COCCN(C)c1cc(NC2CCN(C(C)=O)CC2)cc(C(=O)NC[C@H](O)CN2CCc3ccccc3C2)n1 [Compound 672],< 0.1 µM,< 0.1 µM,< 0.1 µM,–,–,–
O=C(NC[C@H](O)CN1CCc2ccccc2C1)c1cc(NC2CCN(C(=O)C3CCC3)CC2)ncn1 [Compound 419],< 0.1 µM,< 0.1 µM,< 0.1 µM,–,–,–
Cc1cnc(NC2CN(CC(F)(F)F)C2)cc1C(=O)NC[C@H](O)CN1CCc2ccccc2C1 [Compound 356],–,–,–,0.101 to 1 µM,> 1 µM,> 20 µM
CCN1CCC(Oc2ccc(C(=O)NC[C@H](O)CN3CCc4ccccc4C3)cc2)CC1 [Compound 346],–,–,–,< 0.1 µM,< 0.1 µM,0.101 to 1 µM
N[C@H]1CC[C@@H](Nc2cc(C(=O)NC[C@H](O)CN3CCc4ccccc4C3)ncn2)CC1 [Compound 591],< 0.1 µM,< 0.1 µM,1 to 10 µM,–,–,–
O=C(NC[C@H](O)CN1CCc2ccccc2C1)c1ccc2[nH]nnc2c1 [Compound 305],–,–,–,< 0.1 µM,< 0.1 µM,0.101 to 1 µM
CS(=O)(=O)Nc1ccc(C(=O)NCC(O)CN2CCc3ccccc3C2)cc1 (stereo not drawn) [Compound 31],–,–,–,0.101 to 1 µM,0.101 to 1 µM,10 to 50 µM
O=C(NCC(O)CN1CCc2ccccc2C1)c1cccnc1 (stereo not drawn) [Compound 18],–,–,–,0.101 to 1 µM,0.101 to 1 µM,10 to 50 µM
CC(NC(=O)c1cc(NC2CCN(C(=O)C3CC3)CC2)ncn1)C(O)CN1CCc2ccccc2C1 (stereo not drawn) [Compound 552],< 0.1 µM,< 0.1 µM,0.101 to 1 µM,–,–,–
CC(C)C(=O)N1CCN(c2nc(NC3COC3)cc(C(=O)NC[C@H](O)CN3CCc4ccccc4C3)n2)CC1 [Compound 463],< 0.1 µM,< 0.1 µM,< 0.1 µM,–,–,–

# — patent US10307413B2, “Tetrahydro- and dihydro-isoquinoline PRMT5 inhibitors and uses thereof” (Epizyme, Inc., priority 2013, dated 2019)
